The source of these data is ChEMBL document CHEMBL1629430, “2'-deoxy-2'-α-fluoro-2'-β-C-methyl 3',5'-cyclic phosphate nucleotide prodrug analogs as inhibitors of HCV NS5B polymerase: discovery of PSI-352938” (Bioorg Med Chem Lett, 2010).

Bounds are passed on as bounds.

Series [1] is described as follows: Cytotoxicity against human HuH7 cells. Type of series: cell-based, Huh-7.
For series [2], the target named is RNA-directed RNA polymerase (Hepacivirus hominis, UniProt O39930). In words: Inhibition of HCV NS5B polymerase.
RNA-directed RNA polymerase, sequence (O39930 whole entry): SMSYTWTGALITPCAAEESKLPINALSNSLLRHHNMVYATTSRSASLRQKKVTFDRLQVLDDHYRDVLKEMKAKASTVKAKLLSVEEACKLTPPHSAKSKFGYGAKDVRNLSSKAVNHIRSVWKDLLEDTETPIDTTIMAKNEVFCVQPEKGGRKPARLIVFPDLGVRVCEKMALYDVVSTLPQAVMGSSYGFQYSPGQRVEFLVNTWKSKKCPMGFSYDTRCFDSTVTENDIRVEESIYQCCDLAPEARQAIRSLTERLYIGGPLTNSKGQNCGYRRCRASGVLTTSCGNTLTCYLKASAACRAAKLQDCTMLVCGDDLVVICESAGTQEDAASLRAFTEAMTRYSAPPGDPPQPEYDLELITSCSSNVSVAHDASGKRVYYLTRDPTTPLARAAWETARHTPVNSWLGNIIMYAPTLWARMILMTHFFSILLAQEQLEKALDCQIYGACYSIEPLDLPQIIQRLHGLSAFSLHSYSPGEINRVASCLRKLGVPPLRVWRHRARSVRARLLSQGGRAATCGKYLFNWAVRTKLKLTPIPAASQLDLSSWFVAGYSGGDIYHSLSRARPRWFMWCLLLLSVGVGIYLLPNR
The test system of series [3] is Hepatitis C virus. The series is described as follows: Antiviral activity against Hepatitis C virus -infected in human HuH7 cells. Type of series: functional, Hepacivirus hominis, Huh-7.
Series [4] in a line: Half life of the compound in simulated intestinal fluid. Particulars: for half-life: simulated intestinal fluid, read-out: Stability. The class given is physicochemical.
Series [5] deals with Hepatitis C virus. The series is described as follows: Antiviral activity against wild-type Hepatitis C virus -infected in human HuH7 cells. The class given is functional, Hepacivirus hominis, Huh-7.
Series [6] deals with Hepatitis C virus. In words: Antiviral activity against Hepatitis C virus harboring NS5B S282T mutant -infected in human HuH7 cells. The class given is functional, Hepacivirus hominis, Huh-7.
Series [7] can be described thus: Half life of the compound in simulated gastrointestinal fluid. Type of series: physicochemical. Particulars: read-out: Stability (converted).
Series [8] in a line: Half life in human plasma. The class given is ADME, cell-free. The note with it: read-out: Stability (converted).
Series [9] in a line: Half life in human liver S9 fraction. Type of series: ADME, subcellular. Particulars: read-out: Stability (converted).
A short description of series [10]: Cytotoxicity against human HepG2 cells. Type of series: cell-based.
The nature of series [11]: Cytotoxicity against human BxPC3 cells. Type of series: cell-based, BXPC-3.
Series [12] can be described thus: Cytotoxicity against human CEM cells. Type of series: cell-based. The note with it: CEM cells (CCRF-CEM).
Series [13] in a line: Mitochondrial toxicity in human CEM cells. The class given is cell-based. The note with it: CEM cells (CCRF-CEM).
Series [14] can be described thus: Mitochondrial toxicity in human HepG2 cells. Type of series: cell-based.
Series [15] can be described thus: Drug level in Hepatitis C virus -infected human HuH7 cells assessed as cellular triphosphate level at 100 uM after 72 hrs by HPLC method. Particulars: huh-7, 72 h. Type of series: ADME, cell-based.
A further series has as its system Hepatocyte. In words: Drug level in human hepatocytes assessed as cellular triphosphate level at 100 uM after 72 hrs by HPLC method. Type of series: ADME, cell-based.
The test system of series [16] is Rattus norvegicus. In words: AUC (0 to 24 hrs) in rat liver assessed as 2'-Deoxy-2'-alpha-F-2'-beta-C-methyl guanosine triphosphate level at 50 mg/kg, po. Type of series: ADME, organism-based. Also noted: time < 24 hr, dose 50 mg/kg, route oral. The note with it: in vivo.
The subject of a further series is Liver. The series is described as follows: AUC (0 to 24 hrs) in rat liver. Also noted: time < 24 hr. The note with it: in vivo. Type of series: ADME, tissue-based.
In series [17] the test system is Rattus norvegicus. In words: Cmax in rat liver assessed as 2'-Deoxy-2'-alpha-F-2'-beta-C-methyl guanosine triphosphate level at 50 mg/kg, po. Type of series: ADME, organism-based. Also noted: dose 50 mg/kg, route oral. Particulars: in vivo.

A word on the CC50: it is the concentration at which the toxic effect on the cells reaches its halfway point. High values mean lower toxicity to the cells, low ones greater toxicity to the cells. The term IC50 denotes the concentration at which inhibition is half-maximal. Consider `C[C@@]1(F)[C@H](O)[C@@H](COP(=O)(O)OP(=O)(O)OP(=O)(O)O)O[C@H]1n1cnc2c(=O)[nH]c(N)nc21` [PSI-352666], for which the CC50 in [1] was > 100 µM. Also, the IC50 in series [2] amounted to 5.94 µM.

One may read the EC90 as the point of the concentration-response curve where the effect stands at 90%. A high value points to weaker potency. `COP1(=O)OC[C@H]2O[C@@H](n3cnc4c(NC5CCCC5)nc(N)nc43)[C@](C)(F)[C@@H]2O1` (stereo partly drawn) returned an EC90 with Hepatitis C virus [3] (Hepatitis C virus, Huh-7) of 7.2 µM.

In the series with Hepatitis C virus [3] (Hepatitis C virus, Huh-7), `CC(C)C(=O)OC[C@H]1O[C@@H](n2ccc(N)nc2=O)[C@](C)(F)[C@@H]1OC(=O)C(C)C` [MERICITABINE] showed an EC90 of 3.9 µM. In series [1], the CC50 is > 100 µM.

The compound `CCO[P@@]1(=O)OC[C@H]2O[C@@H](n3cnc4c(N5CCC5)nc(N)nc43)[C@](C)(F)[C@@H]2O1` gave an EC90 in the series with Hepatitis C virus [3] (Hepatitis C virus, Huh-7) of 69.2 µM.

In the series on Hepatitis C virus [3] (Hepatitis C virus, Huh-7), `CCCCNc1nc(N)nc2c1ncn2[C@@H]1O[C@@H]2COP(=O)(Oc3ccccc3)O[C@H]2[C@@]1(C)F` (single isomer, unassigned) showed an EC90 of 4.76 µM.

`CCCOc1nc(N)nc2c1ncn2[C@@H]1O[C@@H]2CO[P@](=O)(OCCC)O[C@H]2[C@@]1(C)F` (stereo in doubt; 26b): it took 5.27 µM to reach the 90% level in the series on Hepatitis C virus [3] (EC90). The CC50 in [1] is > 11 µM.

For `CCCCNc1nc(N)nc2c1ncn2[C@@H]1O[C@@H]2COP(=O)(OCC)O[C@H]2[C@@]1(C)F` (single isomer, unassigned), in the series with Hepatitis C virus [3] (Hepatitis C virus, Huh-7), it took 48.1 µM to reach the 90% level (EC90).

In the series with Hepatitis C virus [3] (Hepatitis C virus, Huh-7), `COP1(=O)OC[C@H]2O[C@@H](n3cnc4c(NC5CCC5)nc(N)nc43)[C@](C)(F)[C@@H]2O1` (stereo partly drawn) gave an EC90 of 1.56 µM.

With `CCOc1nc(N)nc2c1ncn2[C@@H]1O[C@@H]2CO[P@](=O)(OC(C)C)O[C@H]2[C@@]1(C)F` (stereo in doubt; 24b), the EC90 in the series with Hepatitis C virus [3] stood at 0.69 µM; in the series on Hepatitis C virus [5], 0.69 µM; in the series with Hepatitis C virus [6] it was 0.86 µM. This compound also returned a Stability in series [4] (simulated gi fluid) of 18 h.

Take `CCOc1nc(N)nc2c1ncn2[C@@H]1O[C@@H]2CO[P@](=O)(OC(C)C)O[C@H]2[C@@]1(C)F` (stereo in doubt; 24a): the EC90 amounted to 1.37 µM in the series with Hepatitis C virus [3] (Hepatitis C virus, Huh-7); 1.37 µM with Hepatitis C virus [5] (Hepatitis C virus, Huh-7); 1.61 µM with Hepatitis C virus [6] (Hepatitis C virus, Huh-7). The CC50 in series [1], in series [10], in [11], in series [12], in series [13] and in series [14] was > 100 µM in each case. Moreover, the half-life in series [7] was > 20 h; in [4] it was > 20 h; in [8], > 24 h; in [9] it was > 24 h. Besides, the Drug uptake in series [15] was 0.41 mM; in the series with Hepatocyte it was 0.59 mM. Also, the figures for the AUC with Rattus norvegicus [16] and in the series with Liver were 41893 ng·h/g and 13234 ng·h/g, respectively.

The compound `CO[P@@]1(=O)OC[C@H]2O[C@@H](n3cnc4c(O)nc(N)nc43)[C@](C)(F)[C@@H]2O1` showed an EC90 in the series with Hepatitis C virus [3] (Hepatitis C virus, Huh-7) of 11.8 µM. In [1], the CC50 is > 65 µM.

In the series on Hepatitis C virus [3] (Hepatitis C virus, Huh-7), `CCCOc1nc(N)nc2c1ncn2[C@@H]1O[C@@H]2COP(=O)(OC)O[C@H]2[C@@]1(C)F` (stereo partly drawn) returned an EC90 of 0.83 µM. Moreover, the CC50 in series [1] was > 30 µM.

Consider `CCCNc1nc(N)nc2c1ncn2[C@@H]1O[C@@H]2COP(=O)(OC)O[C@H]2[C@@]1(C)F` (stereo partly drawn), for which the EC90 in the series with Hepatitis C virus [3] (Hepatitis C virus, Huh-7) stood at 0.92 µM; in the series on Hepatitis C virus [5] (Hepatitis C virus, Huh-7), 0.92 µM; with Hepatitis C virus [6] (Hepatitis C virus, Huh-7), 3.08 µM. In addition, the CC50 in series [1] is > 30 µM; in series [10] it was > 100 µM; in [11], > 100 µM; in series [12] it was > 100 µM; in series [13] it was > 100 µM; in series [14] it was 14 µM. Moreover, the half-life in series [7] is 4 h; in [4], > 20 h; in series [8], 15.7 h; in series [9] it was > 24 h.

Turning to `C[C@@]1(F)[C@@H]2O[P@@](=O)(Oc3ccccc3)OC[C@H]2O[C@H]1n1cnc2c(N3CCC3)nc(N)nc21`, the EC90 with Hepatitis C virus [3] (Hepatitis C virus, Huh-7) is 7.7 µM.

In the series with Hepatitis C virus [3], `CCCOc1nc(N)nc2c1ncn2[C@@H]1O[C@@H]2CO[P@](=O)(OCCC)O[C@H]2[C@@]1(C)F` (stereo in doubt; 26a) had a concentration for an effect of 90% (EC90) of 23.8 µM.

By Cmax is commonly meant the highest concentration seen after dosing. As for `CCOc1nc(N)nc2c1ncn2[C@@H]1O[C@@H]2COP(=O)(OC)O[C@H]2[C@@]1(C)F` (stereo partly drawn), the EC90 was 0.41 µM in the series on Hepatitis C virus [3] (Hepatitis C virus, Huh-7); 0.41 µM in the series with Hepatitis C virus [5] (Hepatitis C virus, Huh-7); 0.4 µM with Hepatitis C virus [6] (Hepatitis C virus, Huh-7). In addition, the CC50 in [1] is > 30 µM; in series [10] it was 95 µM; in [11], > 100 µM; in [12] it was > 100 µM; in series [13], > 100 µM; in [14], > 100 µM. The half-life is > 20 h in series [7], > 20 h in series [4], 8.88 h in series [8] and > 24 h in series [9]. The Drug uptake in [15] is recorded as 0.08 mM; with Hepatocyte, 0.12 mM. In the series with Rattus norvegicus [17], the Cmax is reported as 613 ng/g. Further, the AUC came to 4090 ng·h/g in the series with Rattus norvegicus [16] and 8310 ng·h/g in the series on Liver.

`COP1(=O)OC[C@H]2O[C@@H](n3cnc4c(OCc5ccccc5)nc(N)nc43)[C@](C)(F)[C@@H]2O1` (stereo partly drawn) returned an EC90 in the series on Hepatitis C virus [3] (Hepatitis C virus, Huh-7) of 5.05 µM.

In the case of `C[C@@]1(F)[C@H](O)[C@@H](CO)O[C@H]1n1cnc2c(O)nc(N)nc21`, the 90% effect level in the series on Hepatitis C virus [3] (Hepatitis C virus, Huh-7) (EC90) was put at 69 µM.

As for `CC(C)O[P@@]1(=O)OC[C@H]2O[C@@H](n3cnc4c(N5CCC5)nc(N)nc43)[C@](C)(F)[C@@H]2O1`, the 90% effect level in the series on Hepatitis C virus [3] (Hepatitis C virus, Huh-7) (EC90) was put at 18.6 µM.

For `CCCCNc1nc(N)nc2c1ncn2[C@@H]1O[C@@H]2COP(=O)(OC(C)C)O[C@H]2[C@@]1(C)F` (single isomer, unassigned), the EC90 in the series on Hepatitis C virus [3] (Hepatitis C virus, Huh-7) was 9.28 µM.

In the case of `C[C@@]1(F)[C@@H]2O[P@@](=O)(OC3CCC3)OC[C@H]2O[C@H]1n1cnc2c(N3CCC3)nc(N)nc21`, in the series with Hepatitis C virus [3] (Hepatitis C virus, Huh-7), it took 7.3 µM to reach the 90% level (EC90).

Regarding `CCOc1nc(N)nc2c1ncn2[C@@H]1O[C@@H]2COP(=O)(Oc3ccccc3)O[C@H]2[C@@]1(C)F` (stereo partly drawn), in the series with Hepatitis C virus [3] (Hepatitis C virus, Huh-7), the EC90 turned out to be 1.72 µM.

For `COP1(=O)OC[C@H]2O[C@@H](n3cnc4c(N5CCC5)nc(N)nc43)[C@](C)(F)[C@@H]2O1` (stereo partly drawn), the EC90 with Hepatitis C virus [3] (Hepatitis C virus, Huh-7) came out at 0.98 µM; in the series on Hepatitis C virus [5] (Hepatitis C virus, Huh-7) it was 0.98 µM; in the series on Hepatitis C virus [6] (Hepatitis C virus, Huh-7), 1.53 µM. Moreover, the CC50 in [1] is > 30 µM; in series [10], > 100 µM; in series [11], > 100 µM; in series [12] it was > 100 µM; in series [13], > 100 µM; in [14], > 100 µM. Besides, the half-life in series [7] is > 20 h; in series [4], > 20 h; in [8] it was 8.33 h; in series [9], 2.53 h.
